Measurements from patent US20060030616A1, “Anhydride modified cantharidin analogues useful in the treatment of cancer” (priority 1998, published 2006).

Key:
L1210 cells [1] = experiment: Cell cycle analysis, flow cytometry of propidium iodide stained cells; assay type: cell-based, murine
Description: (§1) The cells are fixed in 70% ethanol and stored at −20° C. until analysis is performed (1-2 weeks). After fixing, the cells are pelleted and incubated in PBS containing propidium iodide ([…]) and RNase A (200 mg/ml) for at least 30 min at room temperature. The samples (2×10^4 events) are analysed using a Becton Dickson FACScan, fluorescence is collected in fluorescence detector 2 (FL2), filter 575/30 nm band pass. Cell cycle distribution is assessed using Cell Quest software (Becton Dickson).
(§2) The ability of the protein phosphatase inhibitors to abrogate the G1 or G2 checkpoint of the cell cycle may be determined by cell cycle analysis using flow cytometry. Briefly, asynchronous cell cultures are harvested 18 h after 6 Gy irradiation and/or 12 h incubation with the protein phosphatase inhibitor. Depending upon the p53 status of the cell line, radiation treatment alone will induce arrest in either G1 and/or G2 phase of the cell cycle.
Data shown in Table 2 and FIG. 4 show the cell cycle response of L1210, HL60, HT29 and HCT116 cells to cantharidin and the new cantharidin analogues MK-2 and MK-4 after 12 h exposure. In summary, cantharidin and MK-2 produced a similar response and induced G2 arrest in all four cell lines tested. […] HL60 and HCT116 cells. […] The magnitude of the cell cycle arrest induced by these drugs directly correlated with their cytotoxicity in the respective cell lines. […] The cytotoxicity of the […]

L1210 cells [2] = experiment: Checkpoint abrogation after 6 Gy radiation, flow cytometry; assay type: cell-based, murine; settings: 12 h after drug
Description: as §1, §2
(§3) If the protein phosphatase inhibitor abrogates the G2 checkpoint then the cells will not arrest in the G2 phase of the cell cycle and the cells will continue through the cell cycle and accumulate in the G1 phase of the cell cycle only. Similarily if the protein phosphatase inhibitors abrogates the G1 checkpoint then the cells will not arrest in the G1 phase of the cell cycle and accumulate in the G2 phase of the cell cycle only. Cell cycle analysis using propidium iodide labelling of DNA has been used extensively in our laboratory to assess the effect of specific anticancer agents that induce S-phase cell cycle arrest and apoptotic cell death (Sakoff, Ackland and Stewart, 1998). Experiments were performed on a Becton Dickinson FACScan and using Cell Quest software.
(§4) The cells were treated with 6 Gy of radiation and then treated with cantharidin 6 h later. The ability to abrogate cell cycle arrest was assessed is 12 h after the addition of the drugs.

HCT116 cells = experiment: as above; assay type: cell-based, human; settings: 18 h after 6Gy, 12 h after drug
Description: as §1, §2, §3, §4

O=C1OC(=O)C2C3C=CC(O3)C12 (stereo not shown) [MK-2]
Cell Cycle Distribution, G1 (L1210 cells [1]; L1210, 50 μM, 12 h): 42.7 percentage of total | Cell Cycle Distribution, G2 + M (L1210 cells [1]; L1210, 50 μM, 12 h): 31.7 percentage of total | Cell Cycle Distribution, S (L1210 cells [1]; L1210, 50 μM, 12 h): 26.2 percentage of total | Cell Cycle Distribution, sub G1 (L1210 cells [1]; L1210, 50 μM, 12 h): 0.3 percentage of total | Cell Cycle Distribution, G1 (L1210 cells [1]; L1210, 100 μM, 12 h): 45.2 percentage of total | Cell Cycle Distribution, G2 + M (L1210 cells [1]; L1210, 100 μM, 12 h): 32.4 percentage of total | Cell Cycle Distribution, S (L1210 cells [1]; L1210, 100 μM, 12 h): 22.4 percentage of total | Cell Cycle Distribution, sub G1 (L1210 cells [1]; L1210, 100 μM, 12 h): 0.6 percentage of total | Cell Cycle Distribution, G1 (L1210 cells [1]; L1210, 250 μM, 12 h): 46.7 percentage of total | Cell Cycle Distribution, G2 + M (L1210 cells [1]; L1210, 250 μM, 12 h): 36.7 percentage of total | Cell Cycle Distribution, S (L1210 cells [1]; L1210, 250 μM, 12 h): 14.3 percentage of total | Cell Cycle Distribution, sub G1 (L1210 cells [1]; L1210, 250 μM, 12 h): 2.4 percentage of total | Cell Cycle Distribution, G1 (L1210 cells [1]; L1210, 500 μM, 12 h): 26.3 percentage of total | Cell Cycle Distribution, G2 + M (L1210 cells [1]; L1210, 500 μM, 12 h): 60.0 percentage of total | Cell Cycle Distribution, S (L1210 cells [1]; L1210, 500 μM, 12 h): 10.1 percentage of total | Cell Cycle Distribution, sub G1 (L1210 cells [1]; L1210, 500 μM, 12 h): 3.9 percentage of total | Cell cycle remark (L1210 cells [1]; L1210, 500 μM, 12 h): G2 arrest | Cell cycle response (L1210 cells [1]; L1210, 12 h exposure): G2 arrest | Cell Cycle Distribution, G1 (L1210 cells [2]; L1210, 50 μM, 18 h after 6Gy): 19.0 percentage of total | Cell Cycle Distribution, G2 + M (L1210 cells [2]; L1210, 50 μM, 18 h after 6Gy): 50.1 percentage of total | Cell Cycle Distribution, S (L1210 cells [2]; L1210, 50 μM, 18 h after 6Gy): 27.8 percentage of total | Cell Cycle Distribution, sub G1 (L1210 cells [2]; L1210, 50 μM, 18 h after 6Gy): 4.0 percentage of total | Cell Cycle Distribution, G1 (L1210 cells [2]; L1210, 100 μM, 18 h after 6Gy): 18.4 percentage of total | Cell Cycle Distribution, G2 + M (L1210 cells [2]; L1210, 100 μM, 18 h after 6Gy): 55.8 percentage of total | Cell Cycle Distribution, S (L1210 cells [2]; L1210, 100 μM, 18 h after 6Gy): 23.0 percentage of total | Cell Cycle Distribution, sub G1 (L1210 cells [2]; L1210, 100 μM, 18 h after 6Gy): 3.5 percentage of total | Cell Cycle Distribution, G1 (L1210 cells [2]; L1210, 250 μM, 18 h after 6Gy): 11.2 percentage of total | Cell Cycle Distribution, G2 + M (L1210 cells [2]; L1210, 250 μM, 18 h after 6Gy): 71.9 percentage of total | Cell Cycle Distribution, S (L1210 cells [2]; L1210, 250 μM, 18 h after 6Gy): 10.0 percentage of total | Cell Cycle Distribution, sub G1 (L1210 cells [2]; L1210, 250 μM, 18 h after 6Gy): 6.9 percentage of total | Cell Cycle Distribution, G1 (L1210 cells [2]; L1210, 500 μM, 18 h after 6Gy): 3.4 percentage of total | Cell Cycle Distribution, G2 + M (L1210 cells [2]; L1210, 500 μM, 18 h after 6Gy): 88.4 percentage of total | Cell Cycle Distribution, S (L1210 cells [2]; L1210, 500 μM, 18 h after 6Gy): 2.9 percentage of total | Cell Cycle Distribution, sub G1 (L1210 cells [2]; L1210, 500 μM, 18 h after 6Gy): 5.4 percentage of total | Checkpoint remark (L1210 cells [2]; L1210, 500 μM, 18 h after 6Gy): G1 abrogation | Checkpoint abrogation (L1210 cells [2]; L1210, 6 Gy): abrogated radiation induced G1 arrest | Cell Cycle Distribution, G1 (HCT116 cells; HCT116, 5 μM): 30.8 percentage of total | Cell Cycle Distribution, G2 + M (HCT116 cells; HCT116, 5 μM): 57.2 percentage of total | Cell Cycle Distribution, S (HCT116 cells; HCT116, 5 μM): 7.9 percentage of total | Cell Cycle Distribution, sub G (HCT116 cells; HCT116, 5 μM): 3.7 percentage of total | Cell Cycle Distribution, G1 (HCT116 cells; HCT116, 50 μM): 32.8 percentage of total | Cell Cycle Distribution, G2 + M (HCT116 cells; HCT116, 50 μM): 57.3 percentage of total | Cell Cycle Distribution, S (HCT116 cells; HCT116, 50 μM): 6.3 percentage of total | Cell Cycle Distribution, sub G (HCT116 cells; HCT116, 50 μM): 3.3 percentage of total | Cell Cycle Distribution, G1 (HCT116 cells; HCT116, 100 μM): 29.9 percentage of total | Cell Cycle Distribution, G2 + M (HCT116 cells; HCT116, 100 μM): 59.6 percentage of total | Cell Cycle Distribution, S (HCT116 cells; HCT116, 100 μM): 7.2 percentage of total | Cell Cycle Distribution, sub G (HCT116 cells; HCT116, 100 μM): 3.1 percentage of total | Cell Cycle Distribution, G1 (HCT116 cells; HCT116, 250 μM): 23.9 percentage of total
